Results reported in patent publication US9686986B2, “Herbicidal compounds” (SYNGENTA LIMITED, priority 2011, dated 2017).

Columns and labels:
Assay in all cases: Glasshouse herbicide test, pre- and post-emergence, percentage damage
Type in all cases: in vivo
[1] = system: Amaranthus retoflexus (AMARE); details: 1000 g/h, evaluated after 13 days; for percentage damage caused to the plant, AMARE, POST Application: post-emergence; for percentage damage caused to the plant, AMARE, PRE Application: pre-emergence
Procedure: (§1) Seeds of a variety of test species are sown in standard soil in pots (Alopecurus myosuroides (ALOMY), Setaria faberi (SETFA), Stellaria media (STEME), Echinochloa crus-galli (ECHCG), Solanum nigrum (SOLNI), Amaranthus retoflexus (AMARE), Ipomoea hederacea (IPOHE), Lolium perenne (LOLPE). After cultivation for one day (pre-emergence) or after 8 days cultivation (post-emergence) under controlled conditions in a glasshouse (at 24/16° C., day/night; 14 hours light; 65% humidity), the plants are sprayed with an aqueous spray solution derived from the formulation of the technical active ingredient in acetone/water (50:50) solution containing 0.5% Tween 20 (polyoxyethelyene sorbitan monolaurate, CAS RN 9005-64-5). Compounds ae applied at 1000 g/h. The test plants are then grown in a glasshouse under controlled conditions in a glasshouse (at 24/16° C., day/night; 14 hours light; 65% humidity) and watered twice daily. After 13 days for pre and post-emergence, the test is evaluated for the percentage damage caused to the plant. The biological activities are shown in the following table on a five point scale (5=80-100%; 4=60-79%; 3=40-59%; 2=20-39%; 1=0-19%).

[2] = system: DIGSA; details: 1000 g/h, evaluated after 13 days, five point scale; for percentage damage caused to the plant, DIGSA, POST Application: post-emergence; for percentage damage caused to the plant, DIGSA, PRE Application: pre-emergence
Procedure: [The source words this procedure for another organism and reports this organism under the same test.] as §1

[3] = system: Lolium perenne (LOLPE); details: 1000 g/h, evaluated after 13 days, five point scale; for percentage damage caused to the plant, LOLPE, POST Application: post-emergence; for percentage damage caused to the plant, LOLPE, PRE Application: pre-emergence
Procedure: as §1

[4] = system: Stellaria media (STEME); details: 1000 g/h, evaluated after 13 days, five point scale; for percentage damage caused to the plant, STEME, POST Application: post-emergence; for percentage damage caused to the plant, STEME, PRE Application: pre-emergence
Procedure: as §1

[5] = system: Alopecurus myosuroides (ALOMY); details: 1000 g/h, evaluated after 13 days, five point scale; for percentage damage caused to the plant, ALOMY, POST Application: post-emergence; for percentage damage caused to the plant, ALOMY, PRE Application: pre-emergence
Procedure: as §1

[6] = system: Echinochloa crus-galli (ECHCG); details: 1000 g/h, evaluated after 13 days, five point scale; for percentage damage caused to the plant, ECHCG, POST Application: post-emergence; for percentage damage caused to the plant, ECHCG, PRE Application: pre-emergence
Procedure: as §1

[7] = system: Ipomoea hederacea (IPOHE); details: 1000 g/h, evaluated after 13 days, five point scale; for percentage damage caused to the plant, IPOHE, POST Application: post-emergence; for percentage damage caused to the plant, IPOHE, PRE Application: pre-emergence
Procedure: as §1

[8] = system: Setaria faberi (SETFA); details: 1000 g/h, evaluated after 13 days, five point scale; for percentage damage caused to the plant, SETFA, POST Application: post-emergence; for percentage damage caused to the plant, SETFA, PRE Application: pre-emergence
Procedure: as §1

[9] = system: Solanum nigrum (SOLNI); details: 1000 g/h, evaluated after 13 days, five point scale; for percentage damage caused to the plant, SOLNI, POST Application: post-emergence; for percentage damage caused to the plant, SOLNI, PRE Application: pre-emergence
Procedure: as §1

COc1cc2cc(C(=O)Nc3nnnn3C)c(C(F)(F)F)nc2nc1C [Compound 2.003]
percentage damage caused to the plant, AMARE, POST Application ([1]; five point scale (Table B2)): 5 (5=80-100%) | percentage damage caused to the plant, AMARE, PRE Application ([1]; five point scale (Table B2)): 5 (5=80-100%) | percentage damage caused to the plant, DIGSA, POST Application [2]: 4 (4=60-79%) | percentage damage caused to the plant, DIGSA, PRE Application [2]: 1 (1=0-19%) | percentage damage caused to the plant, LOLPE, POST Application [3]: 2 (2=20-39%) | percentage damage caused to the plant, LOLPE, PRE Application [3]: 1 (1=0-19%) | percentage damage caused to the plant, STEME, POST Application [4]: 5 (5=80-100%) | percentage damage caused to the plant, STEME, PRE Application [4]: 1 (1=0-19%)

CCCn1nnnc1NC(=O)c1cccc(Cl)c1Cl [Compound 1.016]
percentage damage caused to the plant, AMARE, POST Application ([1]; five point scale (Table B2)): 3 (3=40-59%) | percentage damage caused to the plant, AMARE, PRE Application ([1]; five point scale (Table B2)): 4 (4=60-79%) | percentage damage caused to the plant, DIGSA, POST Application [2]: 1 (1=0-19%) | percentage damage caused to the plant, DIGSA, PRE Application [2]: 1 (1=0-19%) | percentage damage caused to the plant, LOLPE, POST Application [3]: 1 (1=0-19%) | percentage damage caused to the plant, LOLPE, PRE Application [3]: 1 (1=0-19%) | percentage damage caused to the plant, STEME, POST Application [4]: 1 (1=0-19%) | percentage damage caused to the plant, STEME, PRE Application [4]: 2 (2=20-39%)

Cc1nc(C(C)F)ccc1C(=O)Nc1nnnn1C (stereo not shown) [Compound 1.006]
percentage damage caused to the plant, AMARE, POST Application ([1]; five point scale (Table B2)): 5 (5=80-100%) | percentage damage caused to the plant, AMARE, PRE Application ([1]; five point scale (Table B2)): 5 (5=80-100%) | percentage damage caused to the plant, DIGSA, POST Application [2]: 5 (5=80-100%) | percentage damage caused to the plant, DIGSA, PRE Application [2]: 4 (4=60-79%) | percentage damage caused to the plant, LOLPE, POST Application [3]: 5 (5=80-100%) | percentage damage caused to the plant, LOLPE, PRE Application [3]: 4 (4=60-79%) | percentage damage caused to the plant, STEME, POST Application [4]: 5 (5=80-100%) | percentage damage caused to the plant, STEME, PRE Application [4]: 4 (4=60-79%)

Cn1nnnc1NC(=O)c1ccccc1Cl [Compound 1.015]
percentage damage caused to the plant, AMARE, POST Application ([1]; five point scale (Table B2)): 4 (4=60-79%) | percentage damage caused to the plant, AMARE, PRE Application ([1]; five point scale (Table B2)): 5 (5=80-100%) | percentage damage caused to the plant, DIGSA, POST Application [2]: 1 (1=0-19%) | percentage damage caused to the plant, DIGSA, PRE Application [2]: 1 (1=0-19%) | percentage damage caused to the plant, LOLPE, POST Application [3]: 4 (4=60-79%) | percentage damage caused to the plant, LOLPE, PRE Application [3]: 3 (3=40-59%) | percentage damage caused to the plant, STEME, POST Application [4]: 4 (4=60-79%) | percentage damage caused to the plant, STEME, PRE Application [4]: 3 (3=40-59%)

COc1ccc2cc(C(=O)Nc3nnn[nH]3)c(C(F)(F)F)nc2n1 [Compound 2.001]
percentage damage caused to the plant, AMARE, POST Application ([1]; five point scale (Table B2)): 3 (3=40-59%) | percentage damage caused to the plant, AMARE, PRE Application ([1]; five point scale (Table B2)): 1 (1=0-19%) | percentage damage caused to the plant, DIGSA, POST Application [2]: 1 (1=0-19%) | percentage damage caused to the plant, DIGSA, PRE Application [2]: 1 (1=0-19%) | percentage damage caused to the plant, LOLPE, POST Application [3]: 1 (1=0-19%) | percentage damage caused to the plant, LOLPE, PRE Application [3]: 1 (1=0-19%) | percentage damage caused to the plant, STEME, POST Application [4]: 3 (3=40-59%) | percentage damage caused to the plant, STEME, PRE Application [4]: 1 (1=0-19%)

Cc1nc2nc(C(F)(F)F)c(C(=O)Nc3nnnn3C)cc2cc1F [Compound 2.002]
percentage damage caused to the plant, AMARE, POST Application ([1]; five point scale (Table B2)): 5 (5=80-100%) | percentage damage caused to the plant, AMARE, PRE Application ([1]; five point scale (Table B2)): 5 (5=80-100%) | percentage damage caused to the plant, DIGSA, POST Application [2]: 4 (4=60-79%) | percentage damage caused to the plant, DIGSA, PRE Application [2]: 3 (3=40-59%) | percentage damage caused to the plant, LOLPE, POST Application [3]: 2 (2=20-39%) | percentage damage caused to the plant, LOLPE, PRE Application [3]: 2 (2=20-39%) | percentage damage caused to the plant, STEME, POST Application [4]: 5 (5=80-100%) | percentage damage caused to the plant, STEME, PRE Application [4]: 3 (3=40-59%)

COCCOCc1nc(C(C)(F)F)ccc1C(=O)Nc1nnnn1C [Compound 1.008]
percentage damage caused to the plant, ALOMY, POST Application [5]: 5 (5=80-100%) | percentage damage caused to the plant, ALOMY, PRE Application [5]: 5 (5=80-100%) | percentage damage caused to the plant, AMARE, POST Application ([1]; five point scale (Table B1)): 5 (5=80-100%) | percentage damage caused to the plant, AMARE, PRE Application ([1]; five point scale (Table B1)): 5 (5=80-100%) | percentage damage caused to the plant, ECHCG, POST Application [6]: 5 (5=80-100%) | percentage damage caused to the plant, ECHCG, PRE Application [6]: 5 (5=80-100%) | percentage damage caused to the plant, IPOHE, POST Application [7]: 5 (5=80-100%) | percentage damage caused to the plant, IPOHE, PRE Application [7]: 5 (5=80-100%) | percentage damage caused to the plant, SETFA, POST Application [8]: 5 (5=80-100%) | percentage damage caused to the plant, SETFA, PRE Application [8]: 5 (5=80-100%) | percentage damage caused to the plant, SOLNI, POST Application [9]: 5 (5=80-100%) | percentage damage caused to the plant, SOLNI, PRE Application [9]: 5 (5=80-100%)

CS(=O)(=O)c1ccc(C(=O)Nc2nnn[nH]2)c(Cl)c1COCC(F)(F)F [Compound 1.002]
percentage damage caused to the plant, AMARE, POST Application ([1]; five point scale (Table B2)): 5 (5=80-100%) | percentage damage caused to the plant, AMARE, PRE Application ([1]; five point scale (Table B2)): 5 (5=80-100%) | percentage damage caused to the plant, DIGSA, POST Application [2]: 1 (1=0-19%) | percentage damage caused to the plant, DIGSA, PRE Application [2]: 1 (1=0-19%) | percentage damage caused to the plant, LOLPE, POST Application [3]: 1 (1=0-19%) | percentage damage caused to the plant, LOLPE, PRE Application [3]: 1 (1=0-19%) | percentage damage caused to the plant, STEME, POST Application [4]: 2 (2=20-39%) | percentage damage caused to the plant, STEME, PRE Application [4]: 1 (1=0-19%)

Cn1nnnc1NC(=O)c1cc(Cl)ccc1C(F)(F)F [Compound 1.009]
percentage damage caused to the plant, ALOMY, POST Application [5]: 5 (5=80-100%) | percentage damage caused to the plant, ALOMY, PRE Application [5]: 5 (5=80-100%) | percentage damage caused to the plant, AMARE, POST Application ([1]; five point scale (Table B1)): 5 (5=80-100%) | percentage damage caused to the plant, AMARE, PRE Application ([1]; five point scale (Table B1)): 5 (5=80-100%) | percentage damage caused to the plant, ECHCG, POST Application [6]: 2 (2=20-39%) | percentage damage caused to the plant, ECHCG, PRE Application [6]: 2 (2=20-39%) | percentage damage caused to the plant, IPOHE, POST Application [7]: 5 (5=80-100%) | percentage damage caused to the plant, IPOHE, PRE Application [7]: 4 (4=60-79%) | percentage damage caused to the plant, SETFA, POST Application [8]: 1 (1=0-19%) | percentage damage caused to the plant, SETFA, PRE Application [8]: 1 (1=0-19%) | percentage damage caused to the plant, SOLNI, POST Application [9]: 5 (5=80-100%) | percentage damage caused to the plant, SOLNI, PRE Application [9]: 5 (5=80-100%)

COCc1nc(C(C)F)ccc1C(=O)Nc1nnnn1C (stereo not shown) [Compound 1.007]
percentage damage caused to the plant, AMARE, POST Application ([1]; five point scale (Table B2)): 5 (5=80-100%) | percentage damage caused to the plant, AMARE, PRE Application ([1]; five point scale (Table B2)): 5 (5=80-100%) | percentage damage caused to the plant, DIGSA, POST Application [2]: 5 (5=80-100%) | percentage damage caused to the plant, DIGSA, PRE Application [2]: 3 (3=40-59%) | percentage damage caused to the plant, LOLPE, POST Application [3]: 2 (2=20-39%) | percentage damage caused to the plant, LOLPE, PRE Application [3]: 1 (1=0-19%) | percentage damage caused to the plant, STEME, POST Application [4]: 5 (5=80-100%) | percentage damage caused to the plant, STEME, PRE Application [4]: 4 (4=60-79%)
